According to the NIST ThermoML archive (doi:10.1021/je0340912):
Values joined by “and” are separate entries in the source; they are usually repeats but may differ in a detail not shown here. Equal values may be shown once. Numbers after ± are expanded uncertainties.

Tests used:
[1] = Liquid; for mass density: 101.33 kPa
[2] = excess molar enthalpy (molar enthalpy of mixing); xn = mol fraction of the nth substance listed; conditions: 101.32 kPa, Liquid, Flow calorimetry

SMILES: CC(C)(C)O [2-methylpropan-2-ol]
- mass density ([1]; 303.15 K): 775.5 ± 0.6 kg/m3
- vapor or sublimation pressure ([1]; 355.13 K): 100.6 ± 0.2 kPa

SMILES: CCC(C)O (configuration not stated) [butan-2-ol]
- mass density ([1]; 298.15 K): 802.4 ± 0.6 kg/m3
- vapor or sublimation pressure ([1]; 372.14 K): 100.5 ± 0.2 kPa

SMILES: C=C(C)CC(C)(C)C [2,4,4-trimethyl-1-pentene] + CC(C)(C)O
- excess molar enthalpy ([2]; 300.15 K, x2 = 0.0529): 0.125 ± 0.00148 kcal/mol
- excess molar enthalpy ([2]; 300.15 K, x2 = 0.0811): 0.151 ± 0.00174 kcal/mol
- excess molar enthalpy ([2]; 300.15 K, x2 = 0.1559): 0.188 ± 0.00213 kcal/mol
- excess molar enthalpy ([2]; 300.15 K, x2 = 0.2264): 0.208 ± 0.00232 kcal/mol
- excess molar enthalpy ([2]; 300.15 K, x2 = 0.2928): 0.218 ± 0.00239 kcal/mol
- excess molar enthalpy ([2]; 300.15 K, x2 = 0.3555): 0.225 ± 0.00239 kcal/mol
- excess molar enthalpy ([2]; 300.15 K, x2 = 0.4148): 0.227 ± 0.00263 kcal/mol
- excess molar enthalpy ([2]; 300.15 K, x2 = 0.471): 0.228 ± 0.00263 kcal/mol
- excess molar enthalpy ([2]; 300.15 K, x2 = 0.5241): 0.226 ± 0.00263 kcal/mol
- excess molar enthalpy ([2]; 300.15 K, x2 = 0.5242): 0.225 ± 0.00239 kcal/mol
- excess molar enthalpy ([2]; 300.15 K, x2 = 0.5747): 0.222 kcal/mol
- excess molar enthalpy ([2]; 300.15 K, x2 = 0.6229): 0.216 ± 0.00239 kcal/mol
- excess molar enthalpy ([2]; 300.15 K, x2 = 0.6687): 0.207 ± 0.00232 kcal/mol
- excess molar enthalpy ([2]; 300.15 K, x2 = 0.7124): 0.195 ± 0.0022 kcal/mol
- excess molar enthalpy ([2]; 300.15 K, x2 = 0.7541): 0.18 ± 0.00203 kcal/mol
- excess molar enthalpy ([2]; 300.15 K, x2 = 0.7939): 0.161 ± 0.00186 kcal/mol
- excess molar enthalpy ([2]; 300.15 K, x2 = 0.832): 0.141 ± 0.00165 kcal/mol
- excess molar enthalpy ([2]; 300.15 K, x2 = 0.8685): 0.118 ± 0.00141 kcal/mol
- excess molar enthalpy ([2]; 300.15 K, x2 = 0.9034): 0.0915 ± 0.00115 kcal/mol
- excess molar enthalpy ([2]; 300.15 K, x2 = 0.9369): 0.0626 ± 0.00086 kcal/mol
- excess molar enthalpy ([2]; 300.15 K, x2 = 0.9691): 0.0326 ± 0.000574 kcal/mol

SMILES: C=C(C)CC(C)(C)C [2,4,4-trimethyl-1-pentene] + CCC(C)O
- excess molar enthalpy ([2]; 298.15 K, x2 = 0.0544): 0.13 ± 0.00153 kcal/mol
- excess molar enthalpy ([2]; 298.15 K, x2 = 0.0832): 0.159 ± 0.00184 kcal/mol
- excess molar enthalpy ([2]; 298.15 K, x2 = 0.1597): 0.202 ± 0.00225 kcal/mol
- excess molar enthalpy ([2]; 298.15 K, x2 = 0.2314): 0.227 ± 0.00263 kcal/mol
- excess molar enthalpy ([2]; 298.15 K, x2 = 0.2987): 0.243 ± 0.00263 kcal/mol
- excess molar enthalpy ([2]; 298.15 K, x2 = 0.3621): 0.251 ± 0.00263 kcal/mol
- excess molar enthalpy ([2]; 298.15 K, x2 = 0.4217): 0.252 ± 0.00287 kcal/mol
- excess molar enthalpy ([2]; 298.15 K, x2 = 0.4781): 0.249 ± 0.00263 kcal/mol
- excess molar enthalpy ([2]; 298.15 K, x2 = 0.5313): 0.241 ± 0.00263 kcal/mol
- excess molar enthalpy ([2]; 298.15 K, x2 = 0.5818): 0.229 ± 0.00263 kcal/mol
- excess molar enthalpy ([2]; 298.15 K, x2 = 0.6296): 0.213 ± 0.00237 kcal/mol
- excess molar enthalpy ([2]; 298.15 K, x2 = 0.675): 0.196 ± 0.0022 kcal/mol
- excess molar enthalpy ([2]; 298.15 K, x2 = 0.7182): 0.177 ± 0.00201 kcal/mol
- excess molar enthalpy ([2]; 298.15 K, x2 = 0.7593): 0.156 ± 0.00179 kcal/mol
- excess molar enthalpy ([2]; 298.15 K, x2 = 0.7986): 0.134 ± 0.00158 kcal/mol
- excess molar enthalpy ([2]; 298.15 K, x2 = 0.836): 0.112 ± 0.00136 kcal/mol
- excess molar enthalpy ([2]; 298.15 K, x2 = 0.8717): 0.0891 ± 0.00112 kcal/mol
- excess molar enthalpy ([2]; 298.15 K, x2 = 0.9059): 0.0665 ± 0.000908 kcal/mol
- excess molar enthalpy ([2]; 298.15 K, x2 = 0.9386): 0.0437 ± 0.000669 kcal/mol
- excess molar enthalpy ([2]; 298.15 K, x2 = 0.9699): 0.0219 ± 0.000454 kcal/mol

SMILES: C=C(C)CC(C)(C)C [2,4,4-trimethyl-1-pentene]
- mass density ([1]; 298.15 K): 711.3 ± 1 kg/m3
- vapor or sublimation pressure ([1]; 374.34 K): 101.4 ± 0.3 kPa and 101.3 ± 0.3 kPa
